Laboratory results from article PMC11079064, “Discovery of a brain penetrant small molecule antagonist targeting LPA1 receptors to reduce neuroinflammation and promote remyelination in multiple sclerosis” (Scientific Reports, 2024).
Entries after “also recorded” stand apart in the source; their conditions may differ.

Assays:
[1] = tested on: microglia; experiment: LPA-induced microglial activation in hippocampal slices; assay type: cell-based, mouse; details: AM152, 10 µM LPA
Method: Microglial activation was then triggered by the addition of 10 µM LPA, slices incubated for 3 additional hours, then fixed. Slices were immunostained against IBA1 and microglial perimeters were measured as a mean of differentiating between ramified/resting versus rounded/activated microglia.
Brains were harvested from mice (postnatal day 20, Charles River). […] 400 µm thick coronal slices were cut on a McIlwain tissue chopper and returned to dissection media and separated manually. […] Slices were incubated for 2 h at 37 °C (4 slices per condition). Microglial activation was initiated by adding LPA (18:1, Avanti Polar Lipids) to a final concentration of 10 µM and incubated for 3 h. Slices were then fixed in formalin and for 2 h.
For immunohistochemistry, slices were washed for 3 × 15 min in 0.5% Triton-X100 and DPBS. Slices were then stained using IBA-1 antibody (Thermo Scientific) in 10% normal goat serum with 0.5% Triton-X100 in DPBS overnight on a rocker. Slices were then washed in 0.5% Triton-X100 in DPBS 3 × 15 min. Goat anti-mouse Alexa 564 (1:500, Invitrogen, Carlsbad, CA) and […] (Invitrogen, Carlsbad, CA) were diluted in DPBS with 0.5% Triton-X100 and incubated for 2h. Slices were washed 3 × 15 min in DPBS with 0.5% Triton-X100, mounted with Fluoromount and imaged on a Nikon A1R confocal microscope.

[2] = set-up: method as in PMID 34969771, PMID 30201408; details: cited from earlier work
[3] = tested on: ROCK (Rho-associated kinase); set-up: method as in PMID 25289646; details: cited from earlier work
[4] = target: T1, autotaxin (Rattus norvegicus, UniProt Q64610); experiment: LPA species in macrophage-conditioned media; assay type: cell-based; details: 1 µM, 48 h
T1 construct: Male Sprague Dawley rat macrophages were isolated from intraperitoneal lavage fluid; endogenous in cells; host or cells: primary rat peritoneal macrophages
Method: Autotaxin (ATX), an enzyme responsible for LPA synthesis, is elevated in CSF samples from multiple sclerosis patients and may be an underlying source of elevated LPA levels in the CNS during disease. […] To confirm the release of LPA from these macrophages, macrophage-conditioned media was taken 30 min or 48 h after plating and various LPA species were measured by mass spectrometry.
Rat macrophages were cultured as described above. Media from wells at 30 m or 48 h post-plating were taken. Media from macrophages treated with 1 µM PF-8380 (autotaxin inhibitor, Sigma, St Louis, MO) for 48 h was also collected. For LPA determination, 20 µl of culture media was aliquoted into glass 12 × 75 mm culture test tubes. 500 µl of 30 mM citric acid/40 mM disodium phosphate buffer (pH 4.0) with 1 ng/ml 17:0 LPA as an internal standard (IS) were also added to the test tubes. 2 ml of 1-butanol were then added to the test tubes, tubes covered with parafilm, vortexed for 10 s, and centrifuged for 10 min at 1000g at 4 °C. After centrifugation, the top layers were transferred to clean test tubes. The bottom layers were extracted again with 1 ml of water-saturated butanol. The test tubes were covered with parafilm, vortexed for 10 s, and centrifuged for 10 min at 1000g at 4 °C. […] After reconstitution, the samples were analyzed by LC–MS/MS using an AB Sciex 6500 + . […]

For Cc1noc(-c2ccc(-c3ccc(C4(C(=O)O)CC4)cc3)cc2)c1NC(=O)O[C@H](C)c1ccccc1 [AM152, reference compound], the “effect on LPA-induced decrease in microglial perimeter length” value [1] is given as “inhibits microglial activation; also recorded: inhibited” and the “Phase 1 tolerability” value [2] is given as “demonstrated Phase 1 tolerability”.
For O=S(=O)(c1cccc2cnccc12)N1CCCNCC1 [fasudil], the “effect on OPC differentiation” value [3] is given as “leads to OPC differentiation”.
For O=C(CCN1CCN(C(=O)OCc2cc(Cl)cc(Cl)c2)CC1)c1ccc2[nH]c(=O)oc2c1 [PF-8380], the “effect on increase of LPA species in macrophage-conditioned media” value [4] was “prevents the induction of several LPA species; also recorded: inhibited”.
For CCCN(C)C(=O)OCc1c(-c2ccc(O[C@H]3CCC[C@H](C(=O)O)C3)c(C)n2)nnn1C [BMS-986278], the “Phase 1 tolerability” value [2] is listed as “demonstrated Phase 1 tolerability”.
